Measured values taken from ChEMBL document CHEMBL5120894, “Isolation, Biosynthetic Investigation, and Biological Evaluation of Maniwamycin G, an Azoxyalkene Compound from Streptomyces sp. TOHO-M025” (J Nat Prod, 2022).
Converted amounts (≈) assume the structure as drawn. The source made the active and inactive calls. The rule behind the calls is not given here.

Experiments:
[1] = Inhibition of quorum sensing system in Chromobacterium violaceum CV026 assessed as reduction in violacein production incubated for 24 hrs
[2] = Inhibition of quorum sensing system in Chromobacterium violaceum CV026 assessed as reduction in violacein production at 1 mg/ml incubated for 24 hrs relative to control

Row | Compound | IC50 [1] | other results
1 | CCCC/C=C/[N+]([O-])=N/[C@H](C)[C@H](C)O | 120 µg/mL (≈ 599 µM) | 
2 | CCCC/C=C/[N+]([O-])=N/[C@H](C)[C@H](O)CC(=O)OC |  | inhibition [2]: 40%
3 | CCCC/C=C/[N+]([O-])=N/C(C)C(O)C(N)=O (stereo not given) | 500 µg/mL (≈ 2180 µM) | 
4 | CCCC/C=C/[N+]([O-])=N/[C@H](C)[C@@H](C)O | 120 µg/mL (≈ 599 µM) | 
5 | CCCC(O)/C=C/[N+]([O-])=N/C(C)C(C)O (stereo not given) |  | inhibition [1]: Active
